Two molecules from patent publication US20180036295A1, “METHODS FOR TREATING PROTEINOPATHIES” (Genzyme Corporation, priority 2015, published 2018) can be followed below.

What all share (format): in vivo, mouse
Series [1] relates to mice overexpressing A53T α-synuclein. Description: Fear conditioning (FC) tests in A53T mice. Conditions: eight months of age.
For series [2], the system named is symptomatic Gba1^D409V/D409V mice. The series is described as follows: NOR test in post-symptomatic Gba1^D409V/D409V mice. Conditions: treatment from approximately 6 months of age, tested at 12 months, n=13, p<0.05; FIG. 16. The method, then:
Gba1^D409V/D409V mice were bred and treated according to Example 24. Mice were fed the control diet or the Compound 1 diet as described in Example 24, except that drug administration was initiated when animals were approximately 6 months of age, and continued until euthanasia at 13 months of age.
Hippocampal memory was evaluated with the NOR test according to Example 25, except that the mice were tested at 6 months of age (before treatment) and again 6 months later, at 12 months of age (after treatment).

Series [3] deals with Gba1^D409V/D409V mice. Description: Novel object recognition (NOR) test in Gba1^D409V/D409V mice. Conditions: 60 mg/kg/day in food from 4 weeks of age, tested at 3 months; FIG. 1. The method, then:
(§1) Gba1^D409V/D409V mice were bred and treated according to Example 24.
(§2) Mice were fed the control diet or the Compound 1 diet as described in Example 24.
In the NOR test, […] wild type (WT) and Gba1^D409V/D409V mice were dosed with Compound 1 starting at 4 weeks of age and were subjected to the NOR test at 3 months (2 months post-treatment).
Mice were individually habituated to explore an open-field box for 5 minutes. During the first training session (T1), two identical objects were symmetrically placed into the open field 14 inches from each other. Animals were allowed to explore for 5 minutes. The number of investigations was recorded by a blinded investigator. After a 24 hour retention period, animals were tested (T2) for their recognition of a novel object. Mice were placed back into the open-field box for 5 minutes, and the time spent investigating the familiar and novel objects was recorded.
Statistical analyses were performed by Student's t-test or analysis of variance (ANOVA) followed by Newman-Keuls' post-hoc test. Preference for novelty was defined as investigating the novel object more than 50% of the time by a one-sample t-test. All statistical analyses were performed with GraphPad Prism v4.0 (GraphPad Software, San Diego, Calif.). Values of p<0.05 were considered significant.

Series [4] deals with Gba1^D409V/D409V mice. The series is described as follows: Fear conditioning (FC) tests in Gba1^D409V/D409V mice. Conditions: ten month-old mice, 60 mg/kg/day in food.
From the text: as §1, §2
Ten month-old wild type (WT) and Gba1^D409V/D409V mice were subjected to FC memory tests. For the FC tests, mice were trained in four of the Med Associates® Near Infrared Fear Conditioning System chambers (St. Albans, Vt.). Mice were placed in the contextual fear chamber in “Context A,” which consists of lighting, a neutral background and a stainless steel grid floor. The mice were trained with a 3-trial delay-cued protocol as defined below. The mice were first given 2 minutes to explore the chamber in Context A before a conditioned stimulus (CS) of a 2000 Hz cue was given. Thirty seconds later a one second unconditioned stimulus (US) of 0.6 mA foot shock was applied. With an inter-trial interval (ITI) of 30 sec, this US-CS response was repeated three times. After a 24 hour retention period, mice were brought back to the testing room and habituated to the room for 1 hour. The mice were again placed in Context A for 5 minutes and freezing to the context was recorded. Freezing (defined as the lack of movement, except for respiration) was recorded using a near-infrared camera system. […] Again, freezing to the novel environment and the cue were assessed with the near infrared camera system. […]

For a further series, the system named is human A53T-α-synuclein. The series is described as follows: Subcellular localization of α-synuclein in cortical tissue homogenates of A53T mice (serial fractionation, ELISA). Conditions: cortex, 8 months of age. A general note: ELISA stands for enzyme-linked immunosorbent assay.
The subject of series [5] is protein aggregates (ubiquitin, α-synuclein and/or protein tau). The series is described as follows: Protein aggregation in brains of post-symptomatic Gba1^D409V/D409V mice (Example 33). Conditions: administration initiated after symptoms of cognitive impairment, approximately 6 months of age. The method, then:
Wild-type (WT) and Gba1^D409V/D409V mice are bred and treated substantially as described in Example 27, except that drug administration is initiated when animals are symptomatic for cognitive impairment, e.g. at approximately 6 months of age.
The accumulation of proteins (ubiquitin, α-synuclein and protein tau) is determined by hippocampal quantification and protein immunoreactivity substantially as described in Example 27.

Another series has as its system protein tau aggregates. The series is described as follows: Hippocampal quantification of protein tau aggregates in A53T mice. Conditions: 8 months of age, FIG. 14. The protocol:
For histological analysis, mice were perfused with cold PBS. Brains were removed and post-fixed in 10% (v/v) neutral buffered formalin for 48 hours. Tissues were then placed in 30% sucrose, embedded and sectioned at 20 μm in a cryostat. Some tissues were pretreated with proteinase K (1:4 dilution; DAKO, Carpinteria, Calif.) for 7 minutes at room temperature to expose α-synuclein and other aggregated proteins. […] For α-synuclein aggregate quantification, a cyanine 3-tyramide signal amplification kit was used (PerkinElmer, Waltham, Mass.). […]
For morphometric analysis, sections were imaged with a SPOT camera (Diagnostic Instruments, Sterling Heights, Mich.) paired with a Nikon Eclipse E800 fluorescence microscope equipped with a 20λ objective lens. […] For ubiquitin and tau quantification, the same threshold was used for all images such that the aggregates were positively counted and the threshold area was recorded for each image in pixels. For α-synuclein quantification, each image was analyzed individually using a range of threshold values to quantify the area of the aggregates accurately and eliminate variable background signals. […] The percent threshold area was calculated and expressed as mean±SEM. […]

Series [6] has as its system mice overexpressing A53T α-synuclein. The series is described as follows: Novel object recognition (NOR) test in A53T mice. Conditions: A53T mice dosed from 6 weeks of age, tested at 4.5 months; FIG. 3.
Series [7] in a line: Tissue distribution of Compound 1 in brain and liver after oral administration in food. Conditions: Gba1^D409V/D409V mice. The protocol:
Gba1^D409V/D409V mice (harboring a point mutation at residue 409 in the murine Gba1 gene) were bred under a protocol approved by the Institutional Animal Care and Use Committee. Treatments were administered as described and the animals were humanely sacrificed at pre-determined time points or upon reaching a humane endpoint.
A subset of Gba1^D409V/D409V mice received Compound 1 administered in food using a formulation calculated to provide 60 mg/kg/day. Drug administration was initiated when pups were weaned at 4 weeks of age and continued until euthanasia at 4 or 10 months of age. The concentration of Compound 1 in brain and liver tissues was determined by mass spectrometry (see e.g. Ramanathan et al. “The emergence of high-resolution MS as the premier analytical tool in the pharmaceutical bioanalysis arena” Bioanalysis. March 2012; 4(5):467-469).

In series [8] the test system is Gba1^D409V/D409V mice. The series is described as follows: NOR and FC tests in Gba1^D409V/D409V mice with Compound 2 (Example 34). Conditions: diet containing Compound 2. The protocol: Gba1^D409V/D409V mice are bred and treated substantially as described in Example 24. Mice are fed a control diet or a diet containing a quinuclidine compound substantially as described in Example 25, except that the compound administered is Compound 2.
The NOR test and the FC test are performed substantially as described in Example 25.

Series [9] concerns protein aggregates (ubiquitin, α-synuclein and/or protein tau). Description: Protein aggregation in brains of Gba1^D409V/D409V mice with Compound 2 (Example 35). Conditions: diet containing Compound 2. The method, then:
Wild-type (WT) and Gba1^D409V/D409V mice are fed the control diet or a diet containing a quinuclidine compound substantially as described in Example 27, except that the compound administered is Compound 2.
The accumulation of proteins (ubiquitin, α-synuclein and protein tau) is determined by hippocampal quantification and protein immuoreactivity as described in Example 27.

Where [10] appears, read: in food, 60 mg/kg/day, mass spectrometry.

Structures are written as SMILES.

Regarding `CC(C)(NC(=O)OC1CN2CCC1CC2)c1cccc(-c2ccc(F)cc2)c1` (stereo not drawn) [Compound 1, 1-azabicyclo[2.2.2]oct-3-yl [2-(4′-fluorobiphenyl-3-yl)propan-2-yl]carbamate], the “FC test, contextual memory (freezing responses)” value (in [1] (FIG. 4A); with Gba1^D409V/D409V mice [4] (FIG. 2A)) was “improved the freezing responses” each time. The “FC test, cued memory” value is reported as “only a marginal effect” in series [1] (FIG. 4B) and “no effect” with Gba1^D409V/D409V mice [4] (FIG. 2B). In addition, the “NOR test, investigation of novel object during testing trial” value in [2] is given as “recovered the ability to investigate the unfamiliar object”. For the same molecule, the “NOR test, target investigations of novel object during testing (T2)” value (in the series with Gba1^D409V/D409V mice [3]; in series [6]) was “trend to reversal of their memory deficit” in each case. The “level of insoluble α-synuclein” value with human A53T-α-synuclein (SDS-soluble fraction, n=14, P<0.01, FIG. 11C) was 81±3 % of the control value. The “level of cytosolic soluble α-synuclein” value in the series on human A53T-α-synuclein (Tris-soluble fraction, n=14, P=0.17, FIG. 11A) is 114±8 % of the control value. For the same molecule, the “level of membrane-associated α-synuclein” value in the series with human A53T-α-synuclein (Triton-soluble fraction, n=14, P<0.05, FIG. 11B) is 75±8 % of the control value. Further, the “accumulation of protein aggregates (ubiquitin, α-synuclein and/or protein tau) in the brains” value in series [5] is given as “measurable reduction”. The “level of protein tau aggregates in hippocampus” value in the series with protein tau aggregates is listed as “significant reduction”. The “concentration in the brain as percentage of the concentration in the liver” value in [7] (in food, 60 mg/kg/day) was “approximately 2%”. Also, the “tissue exposure in the cortex” value in series [7] (setting [10]) was 217±12 ng/g tissue. Besides, the “tissue exposure in the liver” value in [7] (setting [10]) came to 10512±603 ng/g tissue. Besides, the blood-brain barrier penetration entry in series [7] (oral in food) is reported as “crosses the blood-brain barrier”.

For `CC(C)(NC(=O)O[C@@H]1CN2CCC1CC2)c1csc(-c2ccc(F)cc2)n1` [Compound 2, (S)-quinuclidin-3-yl 2-(2-(4-fluorophenyl)thiazol-4-yl)propan-2-ylcarbamate], the “memory deficit (NOR and FC tests)” value in the series with Gba1^D409V/D409V mice [8] is recorded as “improve memory deficit”. Besides, the “accumulation of protein aggregates (ubiquitin, α-synuclein and/or protein tau) in the brains” value in [9] is “measurable reduction”.
